Measurements: ChEMBL document CHEMBL3774310, “Discovery of antitumor anthra[2,3-b]furan-3-carboxamides: Optimization of synthesis and evaluation of antitumor properties” (Eur J Med Chem, 2016)
Activity calls are given as the source filed them. The calls are words filed in the database; no cut-off is given here.

How the values were obtained:
[1] = tested on: HCT-116; assay: Induction of apoptosis in human HCT116 cells assessed as viable cells at 1 uM after 24 hrs by Annexin V-FITC/propidium iodide staining based assay (reference value: 95 +/- 2%); type: functional
[2] = tested on: Calf thymus DNA; assay: Binding affinity to calf thymus DNA at 5 uM by fluorescence assay; type: nucleic-acid assay; conditions: Bos taurus
[3] = tested on: HCT-116; assay: Induction of apoptosis in human HCT116 cells assessed as early apoptotic cells at 1 uM after 24 hrs by Annexin V-FITC/propidium iodide staining based assay (reference value: 2 +/- 1%); type: functional
[4] = target: T1, DNA topoisomerase 1 (Homo sapiens) (UniProt P11387); assay: Inhibition of topoisomerase 1 (unknown origin) assessed as attenuation of enzyme-mediated relaxation of supercoiled pBR322 DNA after 30 mins by agarose gel electrophoresis
T1 sequence (whole entry): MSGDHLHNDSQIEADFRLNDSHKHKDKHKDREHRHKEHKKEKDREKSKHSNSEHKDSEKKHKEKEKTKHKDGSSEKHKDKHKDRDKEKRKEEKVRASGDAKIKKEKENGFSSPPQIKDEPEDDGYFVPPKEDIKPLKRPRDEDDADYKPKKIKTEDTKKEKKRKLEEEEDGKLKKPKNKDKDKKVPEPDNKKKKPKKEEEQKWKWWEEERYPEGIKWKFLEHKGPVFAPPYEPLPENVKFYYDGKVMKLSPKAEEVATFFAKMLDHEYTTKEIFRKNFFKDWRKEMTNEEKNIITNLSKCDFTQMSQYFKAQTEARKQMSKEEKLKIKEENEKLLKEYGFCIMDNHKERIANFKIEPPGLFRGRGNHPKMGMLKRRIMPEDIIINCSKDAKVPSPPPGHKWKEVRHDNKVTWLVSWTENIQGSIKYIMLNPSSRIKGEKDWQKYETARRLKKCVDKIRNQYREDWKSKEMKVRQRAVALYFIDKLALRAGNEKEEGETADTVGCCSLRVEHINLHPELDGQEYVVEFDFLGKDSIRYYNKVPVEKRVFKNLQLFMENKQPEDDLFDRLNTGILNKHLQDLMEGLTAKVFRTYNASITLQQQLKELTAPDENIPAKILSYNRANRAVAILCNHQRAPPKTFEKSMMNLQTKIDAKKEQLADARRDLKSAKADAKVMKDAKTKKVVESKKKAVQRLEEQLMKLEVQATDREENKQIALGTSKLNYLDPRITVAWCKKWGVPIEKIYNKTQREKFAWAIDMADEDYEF

[5] = Cell cycle arrest in human HCT116 cells assessed as decrease in S phase at 1 uM after 24 hrs; type: functional, cell-based; conditions: HCT-116
[6] = Antiproliferative activity against human K562/4 cells after 72 hrs by MTT assay; conditions: K562/4, 72 h
[7] = tested on: HCT-116; assay: Induction of apoptosis in p53 knockout human HCT116 cells assessed as necrotic cells at 1 uM after 48 hrs by Annexin V-FITC/propidium iodide staining based assay (reference value: 2 +/- 1%); type: functional
[8] = tested on: HCT-116; assay: Induction of apoptosis in p53 knockout human HCT116 cells assessed as late apoptotic cells at 1 uM after 24 hrs by Annexin V-FITC/propidium iodide staining based assay (reference value: 2 +/- 1%); type: functional
[9] = tested on: HCT-116; assay: Induction of apoptosis in human HCT116 cells assessed as late apoptotic cells at 1 uM after 24 hrs by Annexin V-FITC/propidium iodide staining based assay (reference value: 1 +/- 1%); type: functional
[10] = target: DNA topoisomerase 2-alpha (Homo sapiens) (UniProt P11388); assay: Inhibition of human topoisomerase 2-alpha assessed as attenuation of enzyme-mediated relaxation of supercoiled pBR322 DNA at 40 uM after 30 mins by agarose gel electrophoresis
[11] = tested on: HCT-116; assay: Induction of apoptosis in p53 knockout human HCT116 cells assessed as viable cells at 1 uM after 48 hrs by Annexin V-FITC/propidium iodide staining based assay (reference value: 93 +/- 3%); type: functional
[12] = tested on: HCT-116; assay: Induction of apoptosis in p53 knockout human HCT116 cells assessed as necrotic cells at 1 uM after 24 hrs by Annexin V-FITC/propidium iodide staining based assay (reference value: 2 +/- 1%); type: functional
[13] = tested on: HCT-116; assay: Induction of apoptosis in p53 knockout human HCT116 cells assessed as early apoptotic cells at 1 uM after 24 hrs by Annexin V-FITC/propidium iodide staining based assay (reference value: 2 +/- 1%); type: functional
[14] = tested on: HCT-116; assay: Induction of apoptosis in p53 knockout human HCT116 cells assessed as early apoptotic cells at 1 uM after 48 hrs by Annexin V-FITC/propidium iodide staining based assay (reference value: 2 +/- 1%); type: functional
[15] = tested on: HCT-116; assay: Induction of apoptosis in human HCT116 cells assessed as necrotic cells at 1 uM after 48 hrs by Annexin V-FITC/propidium iodide staining based assay (reference value: 2 +/- 1%); type: functional
[16] = tested on: HCT-116; assay: Induction of apoptosis in p53 knockout human HCT116 cells assessed as viable cells at 1 uM after 24 hrs by Annexin V-FITC/propidium iodide staining based assay (reference value: 93 +/- 3%); type: functional
[17] = tested on: HCT-116; assay: Induction of apoptosis in human HCT116 cells assessed as viable cells at 1 uM after 48 hrs by Annexin V-FITC/propidium iodide staining based assay (reference value: 95 +/- 2%); type: functional
[18] = tested on: PBL; assay: Cytotoxicity against human PBL assessed as reduction in cell viability after 72 hrs by MTT assay; type: cell-based
[19] = tested on: Calf thymus DNA; assay: Binding affinity to calf thymus DNA assessed as bathochromic shift at 5 uM by spectrophotometric analysis; type: nucleic-acid assay; conditions: Bos taurus
[20] = Cell cycle arrest in p53 knockout human HCT116 cells assessed as accumulation in sub G1 phase at 1 uM after 24 to 48 hrs relative to control; type: functional, cell-based; conditions: HCT-116
[21] = tested on: HCT-116; assay: Induction of apoptosis in human HCT116 cells assessed as necrotic cells at 1 uM after 24 hrs by Annexin V-FITC/propidium iodide staining based assay (reference value: 2 +/- 1%); type: functional
[22] = Cell cycle arrest in p53 knockout human HCT116 cells assessed as decrease in S phase at 1 uM after 24 hrs; type: functional, cell-based; conditions: HCT-116
[23] = Cell cycle arrest in human HCT116 cells assessed as accumulation in sub G1 phase at 1 uM after 24 to 48 hrs relative to control; type: functional, cell-based; conditions: HCT-116
[24] = tested on: HCT-116; assay: Induction of apoptosis in human HCT116 cells assessed as early apoptotic cells at 1 uM after 48 hrs by Annexin V-FITC/propidium iodide staining based assay (reference value: 2 +/- 1%); type: functional
[25] = tested on: P388; assay: Antitumor activity against mouse P388 cells transplanted in DBA2/BDF1 mouse assessed as mean life span at 30 mg/kg, ip dosed daily for 5 days relative to control; type: functional
[26] = Cell cycle arrest in human HCT116 cells assessed as decrease in G1 phase at 1 uM after 24 hrs; type: functional, cell-based; conditions: HCT-116
[27] = target: T1, DNA topoisomerase 1 (Homo sapiens); assay: Poisoning activity at topoisomerase 1 (unknown origin) using 3'-[32P]dGTP labelled 117bp oligonucleotide assessed as induction of DNA cleavage incubated for 20 mins by SDS-PAGE analysis
[28] = Cell cycle arrest in p53 knockout human HCT116 cells assessed as decrease in G1 phase at 1 uM after 24 hrs; type: functional, cell-based; conditions: HCT-116
[29] = HCT-116, 24 h, read-out: Activity
[30] = HCT-116, 48 h, read-out: Activity

Chain of DNA topoisomerase 2-alpha (Homo sapiens) (P11388 whole entry): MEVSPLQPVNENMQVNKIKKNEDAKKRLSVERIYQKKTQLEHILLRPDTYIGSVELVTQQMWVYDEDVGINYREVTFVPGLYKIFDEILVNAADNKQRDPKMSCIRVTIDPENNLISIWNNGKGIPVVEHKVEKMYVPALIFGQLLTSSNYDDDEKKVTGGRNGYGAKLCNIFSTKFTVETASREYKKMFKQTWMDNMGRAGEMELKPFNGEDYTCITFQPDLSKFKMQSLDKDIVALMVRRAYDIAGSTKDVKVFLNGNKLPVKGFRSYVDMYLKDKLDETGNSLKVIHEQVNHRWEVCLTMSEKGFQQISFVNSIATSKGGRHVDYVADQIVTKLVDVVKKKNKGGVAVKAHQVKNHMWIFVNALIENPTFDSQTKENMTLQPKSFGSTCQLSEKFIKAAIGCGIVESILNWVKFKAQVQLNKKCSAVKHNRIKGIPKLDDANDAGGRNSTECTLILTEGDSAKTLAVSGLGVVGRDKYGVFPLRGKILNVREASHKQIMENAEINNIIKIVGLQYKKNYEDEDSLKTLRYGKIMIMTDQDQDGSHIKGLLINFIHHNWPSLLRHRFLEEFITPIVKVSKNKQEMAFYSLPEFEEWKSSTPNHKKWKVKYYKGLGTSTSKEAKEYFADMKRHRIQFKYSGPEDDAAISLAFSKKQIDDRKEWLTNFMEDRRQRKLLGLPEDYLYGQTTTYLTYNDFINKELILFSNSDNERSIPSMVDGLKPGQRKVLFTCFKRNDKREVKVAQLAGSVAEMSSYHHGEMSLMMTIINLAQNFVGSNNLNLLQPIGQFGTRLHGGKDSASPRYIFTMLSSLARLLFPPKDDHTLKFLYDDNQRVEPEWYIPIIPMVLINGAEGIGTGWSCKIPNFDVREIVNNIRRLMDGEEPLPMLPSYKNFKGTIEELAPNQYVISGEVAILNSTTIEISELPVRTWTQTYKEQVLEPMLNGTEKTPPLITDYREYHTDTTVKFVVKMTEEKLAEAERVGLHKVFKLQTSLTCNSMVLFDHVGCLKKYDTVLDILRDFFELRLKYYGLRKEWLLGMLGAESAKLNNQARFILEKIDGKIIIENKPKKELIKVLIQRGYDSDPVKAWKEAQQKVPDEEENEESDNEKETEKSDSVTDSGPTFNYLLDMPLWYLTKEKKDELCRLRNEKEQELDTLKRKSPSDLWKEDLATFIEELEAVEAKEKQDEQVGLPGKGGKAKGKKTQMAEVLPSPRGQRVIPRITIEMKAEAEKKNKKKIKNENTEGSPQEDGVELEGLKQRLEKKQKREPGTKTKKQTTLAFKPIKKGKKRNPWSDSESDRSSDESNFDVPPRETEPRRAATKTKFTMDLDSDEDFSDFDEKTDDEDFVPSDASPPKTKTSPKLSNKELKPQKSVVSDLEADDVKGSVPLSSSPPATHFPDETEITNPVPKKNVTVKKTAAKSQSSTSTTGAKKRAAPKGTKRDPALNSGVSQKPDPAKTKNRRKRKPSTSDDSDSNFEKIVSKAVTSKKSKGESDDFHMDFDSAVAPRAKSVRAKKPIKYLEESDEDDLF

Row | SMILES | Activity [2] | Activity [3] | Activity [4] | Activity [5] | IC50 [6] | Activity [7] | Activity [8] | Activity [9] | Activity [10] | Activity [12] | Activity [13] | Activity [14] | Activity [15] | Activity [18] | Activity [19] | Activity [20] | Activity [21] | Activity [22] | Activity [23] | Activity [24] | other results
1 | CS(=O)(=O)O.Cc1oc2c(O)c3c(c(O)c2c1C(=O)N1CC[C@@H](N)C1)C(=O)c1ccccc1C3=O | Active | Active | Dose-dependent effect | Active | 1300 nM | Active | Active | Active | Active | Active | Active | Active | Active | Non-toxic | 9 nm | > 70% | Active | Active | > 70% | Active | Activity [1]: Active; Activity [11]: Active; Activity [16]: Active; Activity [17]: Active; Activity [25]: 122%; Activity [26]: Active; Activity [27]: inactive; Activity [28]: Active
2 | CS(=O)(=O)O.Cc1oc2c(O)c3c(c(O)c2c1C(=O)N1CC[C@H](N)C1)C(=O)c1ccccc1C3=O | Active | 20% | Dose-dependent effect | Active | 1400 nM | 33% | 12% | 12% | Active | 11% | 17% | 46% | 30% | Non-toxic | 9 nm | > 70% | 10% | Active | > 70% | 45% | viability at 1 µM [1, 29]: 58%; viability at 1 µM [11, 30]: 7%; viability at 1 µM [16, 29]: 54%; viability at 1 µM [17, 30]: 12%; Activity [25]: 214%; Activity [26]: Active; Activity [27]: inactive; Activity [28]: Active
